How the values were obtained:
[1] = tested on: carrageenan-induced hind paw acute inflammation; assay: Carrageenan hind paw acute inflammation, mechanical allodynia (up-down method); format: in vivo, rat; conditions: Example 7, 24 hours after carrageenan
Method: Animals were treated with saline (0.5% final), indomethacin, PEG, magnesium or combined PEG+magnesium solutions. Each animal received 2 injections, the first one 1 hour following carrageenan injection and the second injection 6 hours later. The total dose of PEG and magnesium chloride administered was of 2 and 0.135 g/kg (body weight) respectively. There were 10 animals per group.
Indomethacin (Fluka, cat. 57413, lot 450544/1) was dissolved in 25% hydroxyl-propyl beta cyclodextrin (hpBCD) by gentle heating and stirring. The PEG solution was composed of PEG3350 at 30% in 0.5% saline, the magnesium solution was composed of magnesium chloride at 2% and the combined PEG+magnesium solution was composed of 30% PEG3350+2% Magnesium Chloride (custom made by AAIPharma Developmental Services, Wilmington, N.C.). […]
Twenty-four hours following carrageenan injection into the left paw, the same paw was tested for mechanical allodynia. Baseline and post-treatment values for non-noxious mechanical sensitivity were evaluated using 8 Semmes-Weinstein filaments (Stoelting, Wood Dale, Ill., USA) with varying stiffness (0.4, 0.7, 1.2, 2.0, 3.6, 5.5, 8.5, and 15 g) according to the up-down method (Chaplan et al., 1994). […]
To evaluate the significance of difference between experimental groups, data were analyzed using an unpaired, two-tailed t statistical test with confidence intervals of 95%.

[2] = tested on: controlled cortical impact model of brain injury (TBI); assay: Morris Water Maze test of cognitive function after controlled cortical impact TBI; format: in vivo, rat
From the text: Male Sprague-Dawley rats (Harlan Sprague-Dawley, Indianapolis, Ind.), weighing 350-450 grams each were given free access to food and water before the experiment. The animals were anesthetized with halothane (1% in 70%/30% NO2/O2 by mask).
Animals were anesthetized with isoflorane and placed in a stereotaxic frame in the supine position. A 6 mm craniotomy located approximately midway between bregma and lambda, just above the somatosensory cortex, was made using a Michele trephine. The skull disk was then removed without disturbing the underlying dura mater. The exposed brain was injured using an electronically controlled piston (5 mm diameter, 65 kdynes). The animals in the “sham” group underwent identical surgical procedures, but the surface of the brain was not impacted.
Following surgery, animals were placed in their home cage and dosing was initiated. Animals were treated with saline (Group 1: sham, Group 2: injured), PEG (Group 3: injured), magnesium (Group 4: injured) or a combination of PEG and magnesium solutions (Group 5: injured). The PEG solution was composed of PEG3350 at 30% in 0.5% saline (custom made by AAIPharma Developmental Services, Wilmington, N.C.). […] The magnesium solution was diluted in saline 1:1 before intravenous injection as recommended by the manufacturer. In the cases of combined PEG+Mg combined treatments, animal received the PEG and magnesium components from two individual solutions.
In more details, each animal received 2 injections: • Group 1: Sham—1.23 ml/kg of saline solution followed by 1.23 ml/kg of saline solution; • Group 2: Injured—1.23 ml/kg of saline solution followed by 1.23 ml/kg of saline solution; • Group 3: Injured—2.33 ml/kg of PEG solution followed by 0.12 ml/kg of saline solution; • Group 4: Injured—0.12 ml/kg of magnesium solution followed by 2.33 ml/kg of saline solution; • Group 5: Injured—2.33 ml/kg of PEG solution followed by 0.12 ml/kg of magnesium solution. […]
The effects of PEG, magnesium sulfate and combined treatment on recovery of cognitive function following TBI were evaluated using the Morris Water Maze Test. […]

[3] = tested on: pain; conditions: human, in vivo; cited from earlier work
[4] = tested on: spinal cord contusion at T10 (SCI); assay: Locomotor recovery, modified 12-point BBB scale, after spinal cord contusion (dural impact model); format: in vivo, rat; conditions: Example 4; iv, 15 min and 6 h post-injury; total 2 g/kg PEG, 0.12 g/kg magnesium sulfate
Method: Sprague-Dawley female rats (200-225 gm) received a spinal cord contusion using the Precision Scientific Inc pneumatic impactor. Prior to surgery, rats were assigned to different treatment groups based on a randomized block design so that on any given surgery day all treatments would be included. The rats were anesthetized with ketamine (80 mg/kg) and xylazine (10 mg/kg) before a laminectomy will be performed at the 10th thoracic vertebra (T10). The vertebral column was stabilized with angled clamps on the upper thoracic (T8) and lumbar (T11) levels and the impactor with a tip diameter of 2 mm was delivered at approximately 50 kd onto the exposed, intact dura overlying the dorsal spinal cord. The impactor was immediately removed, the wound irrigated with saline, and the muscle and skin openings sutured together. Female animals were used due to the paralysis associated with the injury and ease of voiding the bladder.
Following surgery, animals were placed in their home cage and dosing was initiated. Animals were treated with saline (Group 1: sham, Group 2: injured), PEG (Group 3: injured), magnesium (Group 4: injured) or a combination of PEG and magnesium solutions (Group 5: injured). […]
(§1) To evaluate the significance of difference between experimental groups, data were analyzed using an unpaired, two-tailed t statistical test with confidence intervals of 95%. […]

[5] = tested on: spinal cord contusion at T10 (SCI); assay: Spinal cord lesion volume after SCI contusion (eriochrome cyanine sections); format: in vivo, rat; conditions: Example 4, sacrificed on day 14, total 2 g/kg PEG, 0.12 g/kg magnesium sulfate
Method: Following surgery, animals were placed in their home cage and dosing was initiated. […]
At the end of the study, the spinal cords were extracted and fixed in 4% paraformaldehyde. […] Tissue sparing was determined by computed image analysis be from 10 evenly spaced sections through the injured T10 segment. […]

[6] = tested on: clip-compression injury at T4 (SCI); assay: Locomotor recovery, 21-point BBB open field test, after clip-compression SCI; format: in vivo, rat; conditions: Example 5; day 7 post-SCI; total 0.6 g/kg magnesium sulfate iv
Method: Wistar female rats weighing 200-250 grams received a controlled clip-compression injury at T4. This experimental model has been previously described in details in Gris et al., 2004. Briefly, animals were premedicated with diazepam (3.5 mg/kg, i.p.) and atropine (0.05 mg/kg, s.c.) in order to facilitate a smooth induction of anesthesia by 4% halothane and maintenance with 1.0-1.5% halothane. The T4 spinal cord segment was exposed by dorsal laminectomy and a modified aneurysm clip, calibrated to 50 grams compression was passed extradurally around the cord and spring released for 60 seconds. Nerve roots were not disrupted during the clip compression.
Following SCI, animals were placed in their home cage and dosing was initiated. […]
Locomotor recovery was assessed by the 21-point Basso, Beatie and Bresnahan (BBB) open field locomotor test (Basso et al., 1995), from day 3-21 after injury. Locomotor function was evaluated by 2 blinded investigators at each testing period.
as §1
Following SCI, rats were treated with saline, PEG, Mg or a combined solution of PEG and Mg. Locomotor recovery was assessed by the 21-point BBB score system from day 3-25 post-injury.

[7] = tested on: neuropathic pain after SCI; assay: Mechanical allodynia (neuropathic pain score, Semmes-Weinstein monofilament) after SCI; format: in vivo, rat; conditions: Example 6; up to 3 weeks post-injury
Method: Animals were prepared as described in Example 3.
Animals were tested for the development of neuropathic pain before and up to 3 weeks post-injury. Neuropathic pain occurrence and severity was evaluated by the response of the animal to a stimulus that is normally not painful or allodynia. Briefly, a modified Semmes-Weinstein monofilament (Stoelting Co, Wood Dale, Ill.) calibrated to generate a force of 15 mN was applied to the dorsal trunk at dermatomes corresponding to spinal segments immediately rostral to the lesion level (T1-T3). The monofilament was applied 10 times for 3 seconds, with each stimulus being separated by a 5 second interval, and the number of avoidance responses out of a possible 10 were recorded. Avoidance responses were defined as flinching, escape, vocalization, or abnormal aggressive behaviors. The scoring system used to monitor mechanical allodynia has been presented in details in Gris et al., 2004. Mechanical allodynia testing was conducted twice per week and the 2 tests were averaged for each animal and reported as a weekly pain score.
To evaluate the significance of difference between experimental groups, data were analyzed using an unpaired, two-tailed t statistical test with confidence intervals of 95%. The Welch's modification was also used to analyze the motor recovery to take in account the significant variability in the control group. […]

[8] = tested on: stroke; conditions: intravenous, up to 12 hours following stroke onset; 2589 patients; cited from earlier work
[9] = tested on: TBI; conditions: trial initiated in 1999; cited from earlier work

## COc1ccc2c(c1)c(CC(=O)O)c(C)n2C(=O)c1ccc(Cl)cc1 [Indomethacin]
[1]; carrageenan-saline 3.4+/−0.5, sham 12.7+/−1.1, higher is better
  mean pain score (mechanical allodynia): 5.6+/−0.9

## [Cl-].[Cl-].[Mg+2] [Magnesium, magnesium chloride]
[2]; summary statement in the description
  effect on the loss of cognitive functions following brain injury: no effect
[1]; total 2 g/kg PEG or 0.135 g/kg magnesium chloride
  effect on the pain score relative to animals treated with saline: no significant effect
[3]
  duration of analgesic effect: ≤ 4 h

## O=S(=O)([O-])[O-].[Mg+2] [Mg, magnesium sulfate]
[2]; Example 1, iv, 15 min and 6 h post-injury, total 1.4 g/kg PEG or 0.230 mmol/kg magnesium sulfate
  effect on cognitive functions following TBI: no effect
[4]
  effect on motor functions following SCI (12-point BBB score) relative to SCI-Saline group: no effect
[5]
  reduction of the lesion volume relative to control group (SCI-Saline): 33%
[6]
  effect on motor recovery (21-point BBB): Some improvement
[7]
  effect on the development of neuropathic pain after SCI: no significant effect
[8]
  clinical improvement after stroke: no significant improvement
[9]
  preliminary data of clinical trial in TBI patients: negative

## [Cl-].[Cl-].[Mg+2] [magnesium chloride]
[2]; Example 2, total 1.4 g/kg PEG or 0.230 mmol/kg magnesium chloride
  effect on cognitive recovery after TBI: no significant effect

Source: US9717756B2, “Method of treating traumatic brain or spinal cord injury with biomembrane sealing agent and magnesium compounds” (Warsaw Orthopedic, Inc., priority 2006, dated 2017)
